Reference: patent publication US12252524B2, “GIP/GLP1 co-agonist compounds” (Eli Lilly and Company, priority 2018, dated 2025)
Numbered stars: 1 amine (or outer) side, 2 acyl side, 3 side chain; on linkers, the order of the positions; unused ones are H or OH. Square brackets hold non-standard residues; d marks the D form. Side chains are listed from the residue outwards. Peptide text beside a SMILES is read from it. * marks the point of attachment. C20 diacid = O=C(O)CCCCCCCCCCCCCCCCCCC(=O)*; αMePhe(2-F) = C[C@](N)(Cc1ccccc1F)C(=O)O; γGlu = O=C(O)[C@H](CCC(=O)[*:2])N[*:1]; 3Pal = N[C@@H](Cc1cccnc1)C(=O)O; αMeL = CC(C)C[C@](C)(N)C(=O)O; AEEA = NCCOCCOCC(=O)O; Aib = CC(C)(N)C(=O)O

Assays:
[1] = target: T1, gastric inhibitory peptide receptor (GIPR) (Homo sapiens, UniProt P48546); experiment: cAMP pharmacological functional assay in presence of casein, hGIPR; format: cell-based; details: HEK293 cells expressing hGIPR, 0.1% Casein, geometric mean; read-out: hGIPR cAMP Rel EC50 nM (SEM, n)
T1 sequence (P48546 22-466): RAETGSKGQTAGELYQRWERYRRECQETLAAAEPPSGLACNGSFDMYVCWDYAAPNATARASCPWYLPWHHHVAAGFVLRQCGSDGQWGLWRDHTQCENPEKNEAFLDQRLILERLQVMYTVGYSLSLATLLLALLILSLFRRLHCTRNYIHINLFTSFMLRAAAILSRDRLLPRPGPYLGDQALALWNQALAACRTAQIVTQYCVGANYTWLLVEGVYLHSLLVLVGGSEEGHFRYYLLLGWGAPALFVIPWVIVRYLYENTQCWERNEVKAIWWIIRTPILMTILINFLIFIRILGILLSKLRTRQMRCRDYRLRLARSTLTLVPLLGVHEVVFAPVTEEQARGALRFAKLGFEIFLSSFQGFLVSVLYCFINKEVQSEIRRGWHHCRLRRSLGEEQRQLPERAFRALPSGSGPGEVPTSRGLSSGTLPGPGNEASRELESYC

human Gcg receptor = target: T2, human Gcg receptor (Homo sapiens, UniProt P47871); experiment: [125I]-Glucagon binding (SPA), human Gcg receptor; details: read-out: hGLcgR Ki, nM (SEM, n)
T2 construct: expressed in transfected cells; crude membranes
T2 sequence (P47871 26-477): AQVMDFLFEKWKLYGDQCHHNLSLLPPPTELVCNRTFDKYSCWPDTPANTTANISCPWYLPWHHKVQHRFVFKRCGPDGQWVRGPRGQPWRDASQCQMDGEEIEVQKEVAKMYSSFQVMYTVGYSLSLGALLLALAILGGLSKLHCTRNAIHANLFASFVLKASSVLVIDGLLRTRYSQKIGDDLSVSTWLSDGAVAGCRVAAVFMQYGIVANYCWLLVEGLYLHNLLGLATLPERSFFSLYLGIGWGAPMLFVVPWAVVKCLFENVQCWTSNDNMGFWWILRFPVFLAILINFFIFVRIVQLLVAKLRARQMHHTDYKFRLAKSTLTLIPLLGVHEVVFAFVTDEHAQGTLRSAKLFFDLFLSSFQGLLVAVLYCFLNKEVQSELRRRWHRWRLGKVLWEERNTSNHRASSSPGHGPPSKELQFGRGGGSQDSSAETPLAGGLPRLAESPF
Procedure, shortened: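 Crude membranes from cells expressing the receptor, prepared by hypotonic lysis in 50 mM Tris HCl pH 7.5 with protease inhibitors, homogenization and differential centrifugation, were used in a WGA-bead SPA. Binding buffer: 25 mM HEPES pH 7.4, 2.5 mM CaCl2, 1 mM MgCl2, bacitracin, Tween-20.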

[2] = target: human GLP-1 receptor (GLP-1R) (Homo sapiens, UniProt P43220); experiment: cAMP pharmacological functional assay in presence of casein, hGLP-1R; format: cell-based; details: HEK293 cells expressing hGLP-1R, 0.1% Casein, geometric mean; read-out: hGLP1R cAMP Rel EC50 nM (SEM, n)
human GLP-1 receptor (GLP-1R), sequence (P43220 24-463): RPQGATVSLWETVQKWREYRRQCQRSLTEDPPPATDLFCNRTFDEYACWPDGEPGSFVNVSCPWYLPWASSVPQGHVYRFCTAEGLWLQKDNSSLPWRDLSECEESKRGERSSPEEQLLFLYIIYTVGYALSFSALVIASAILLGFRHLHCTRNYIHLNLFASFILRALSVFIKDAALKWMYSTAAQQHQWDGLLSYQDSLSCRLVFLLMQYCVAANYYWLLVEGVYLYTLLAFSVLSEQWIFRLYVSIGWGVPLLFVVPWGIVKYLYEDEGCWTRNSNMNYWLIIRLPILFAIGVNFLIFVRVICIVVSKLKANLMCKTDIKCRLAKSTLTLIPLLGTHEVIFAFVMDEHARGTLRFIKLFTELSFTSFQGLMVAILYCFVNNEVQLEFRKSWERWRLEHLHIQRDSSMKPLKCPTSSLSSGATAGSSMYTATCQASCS

human GLP-1R = human GLP-1R (Homo sapiens, UniProt P43220); experiment: [125I]-GLP-1 binding (SPA), human GLP-1 receptor; set-up: expressed in transfected cells; crude membranes; details: read-out: hGLP1R Ki, (nM) (SEM, n)
human GLP-1R, sequence (P43220 24-463): as above
Procedure, shortened: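 Assay buffer: HEPES 25 mM, pH 7.4, CaCl2 2.5 mM, MgCl2 1 mM, with EDTA-free protease inhibitors. Receptor came from crude cell membranes prepared by homogenization and centrifugation at 4° C. IC50s came from four-parameter fits (maximum, minimum, IC50, Hill slope) and were expressed as Ki geometric means with SEM.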

human GIP receptor = target: T3, human GIP receptor (Homo sapiens, UniProt P48546); experiment: [125I]-GIP binding (SPA), human GIP receptor; details: read-out: hGIPR Ki, nM (SEM, n)
T3 construct: expressed in transfected cells; crude membranes
T3 sequence (P48546 22-466): T1 sequence (P48546 22-466)

CC[C@H](C)[C@H](NC(=O)[C@H](CC(C)C)NC(=O)[C@H](Cc1ccc(O)cc1)NC(=O)[C@H](CO)NC(=O)[C@@H](NC(=O)[C@H](Cc1ccccc1)NC(=O)[C@H](CCC(=O)O)NC(=O)C(C)(C)NC(=O)[C@H](CCC(N)=O)NC(=O)[C@H](C)NC(=O)[C@H](CCCCNC(=O)COCCOCCNC(=O)COCCOCCNC(=O)CC[C@H](NC(=O)CCCCCCCCCCCCCCCCCCC(=O)O)C(=O)O)NC(=O)[C@H](CCC(=O)O)NC(=O)[C@H](CC(=O)O)NC(=O)[C@H](CC(C)C)NC(=O)[C@](C)(CC(C)C)NC(=O)[C@@H](NC(=O)[C@H](CO)NC(=O)[C@H](Cc1ccc(O)cc1)NC(=O)[C@H](CC(=O)O)NC(=O)[C@H](CO)NC(=O)[C@@H](NC(=O)[C@](C)(Cc1ccccc1F)NC(=O)[C@@H](NC(=O)CNC(=O)[C@H](CCC(=O)O)NC(=O)C(C)(C)NC(=O)[C@@H](N)Cc1ccc(O)cc1)[C@@H](C)O)[C@@H](C)O)[C@@H](C)CC)[C@@H](C)CC)C(=O)N[C@@H](CCC(=O)O)C(=O)NCC(=O)NCC(=O)N1CCC[C@H]1C(=O)N[C@@H](CO)C(=O)N[C@@H](CO)C(=O)NCC(=O)N[C@@H](C)C(=O)N1CCC[C@H]1C(=O)N1CCC[C@H]1C(=O)N1CCC[C@H]1C(=O)N[C@@H](CO)C(N)=O [Example 150] (H-Y[Aib]EGT[αMePhe(2-F)]TSDYSI[αMeL]LDEK([AEEA-AEEA-γGlu-C20 diacid])AQ[Aib]EFISYLIEGGPSSGAPPPS-NH2) was tested. Which EC50 [1] did it give?
Its EC50 is 0.0511 nM.

And the Ki (human Gcg receptor)?
Its Ki is 63.2 nM.

What about the EC50 [2] of the same molecule?
The EC50 was 0.0575 nM.

What about the Ki (human GLP-1R) of the same molecule?
Its Ki is 30.5 nM.

And the Ki (human GIP receptor)?
Its Ki is 0.0649 nM.

What does the source list for CC[C@H](C)[C@H](NC(=O)[C@H](CC(C)C)NC(=O)[C@H](Cc1ccc(O)cc1)NC(=O)C(C)(C)NC(=O)[C@@H](NC(=O)[C@H](Cc1ccccc1)NC(=O)[C@H](CCC(=O)O)NC(=O)C(C)(C)NC(=O)[C@H](CCC(N)=O)NC(=O)[C@H](C)NC(=O)[C@H](CCCCNC(=O)COCCOCCNC(=O)COCCOCCNC(=O)CC[C@H](NC(=O)CCCCCCCCCCCCCCCCCCC(=O)O)C(=O)O)NC(=O)[C@H](CCC(=O)O)NC(=O)[C@H](CC(=O)O)NC(=O)[C@H](CC(C)C)NC(=O)[C@](C)(CC(C)C)NC(=O)[C@@H](NC(=O)[C@H](CO)NC(=O)[C@H](Cc1ccc(O)cc1)NC(=O)[C@H](CC(=O)O)NC(=O)[C@H](CO)NC(=O)[C@@H](NC(=O)[C@](C)(Cc1ccccc1F)NC(=O)[C@@H](NC(=O)CNC(=O)[C@H](CCC(=O)O)NC(=O)C(C)(C)NC(=O)[C@@H](N)Cc1ccc(O)cc1)[C@@H](C)O)[C@@H](C)O)[C@@H](C)CC)[C@@H](C)CC)C(=O)N[C@@H](CCC(=O)O)C(=O)NCC(=O)NCC(=O)N1CCC[C@H]1C(=O)N[C@@H](CO)C(=O)N[C@@H](CO)C(=O)NCC(=O)N[C@@H](C)C(=O)N1CCC[C@H]1C(=O)N1CCC[C@H]1C(=O)N1CCC[C@H]1C(=O)N[C@@H](CO)C(N)=O [Example 152] (H-Y[Aib]EGT[αMePhe(2-F)]TSDYSI[αMeL]LDEK([AEEA-AEEA-γGlu-C20 diacid])AQ[Aib]EFI[Aib]YLIEGGPSSGAPPPS-NH2)?
EC50 [1]: 0.0504 nM; Ki (human Gcg receptor): 93.4 nM; EC50 [2]: 0.0915 nM; Ki (human GLP-1R): 48 nM; Ki (human GIP receptor): 0.117 nM

CC[C@H](C)[C@H](NC(=O)[C@H](CC(C)C)NC(=O)[C@H](Cc1ccc(O)cc1)NC(=O)[C@H](Cc1c[nH]cn1)NC(=O)[C@@H](NC(=O)[C@H](Cc1ccccc1)NC(=O)[C@H](CCC(=O)O)NC(=O)C(C)(C)NC(=O)[C@H](CCC(N)=O)NC(=O)[C@H](C)NC(=O)[C@H](CCCCNC(=O)COCCOCCNC(=O)COCCOCCNC(=O)CC[C@H](NC(=O)CCCCCCCCCCCCCCCCCCC(=O)O)C(=O)O)NC(=O)[C@H](CCC(=O)O)NC(=O)[C@H](CC(=O)O)NC(=O)[C@H](CC(C)C)NC(=O)[C@](C)(CC(C)C)NC(=O)[C@@H](NC(=O)[C@H](CO)NC(=O)[C@H](Cc1ccc(O)cc1)NC(=O)[C@H](CC(=O)O)NC(=O)[C@H](CO)NC(=O)[C@@H](NC(=O)[C@](C)(Cc1ccccc1F)NC(=O)[C@@H](NC(=O)CNC(=O)[C@H](CCC(=O)O)NC(=O)C(C)(C)NC(=O)[C@@H](N)Cc1ccc(O)cc1)[C@@H](C)O)[C@@H](C)O)[C@@H](C)CC)[C@@H](C)CC)C(=O)N[C@@H](CCC(=O)O)C(=O)NCC(=O)NCC(=O)N1CCC[C@H]1C(=O)N[C@@H](CO)C(=O)N[C@@H](CO)C(=O)NCC(=O)N[C@@H](C)C(=O)N1CCC[C@H]1C(=O)N1CCC[C@H]1C(=O)N1CCC[C@H]1C(=O)N[C@@H](CO)C(N)=O [Example 153] (H-Y[Aib]EGT[αMePhe(2-F)]TSDYSI[αMeL]LDEK([AEEA-AEEA-γGlu-C20 diacid])AQ[Aib]EFIHYLIEGGPSSGAPPPS-NH2; N-terminus assumed) was tested. Which EC50 [1] did it give?
Its EC50 is 0.0634 nM.

And the Ki (human Gcg receptor)?
Its Ki is 43.8 nM.

What about the EC50 [2] of the same molecule?
The EC50 was 0.0904 nM.

And the Ki (human GLP-1R)?
The Ki was 22.2 nM.

And the Ki (human GIP receptor)?
Its Ki is 0.0578 nM.

CC[C@H](C)[C@H](NC(=O)[C@H](CC(C)C)NC(=O)[C@H](Cc1ccc(O)cc1)NC(=O)[C@H](CCC(=O)O)NC(=O)[C@@H](NC(=O)[C@H](Cc1ccccc1)NC(=O)[C@H](CCC(=O)O)NC(=O)C(C)(C)NC(=O)[C@H](CCC(N)=O)NC(=O)[C@H](C)NC(=O)[C@H](CCCCNC(=O)COCCOCCNC(=O)COCCOCCNC(=O)CC[C@H](NC(=O)CCCCCCCCCCCCCCCCCCC(=O)O)C(=O)O)NC(=O)[C@H](CCC(=O)O)NC(=O)[C@H](CC(=O)O)NC(=O)[C@H](CC(C)C)NC(=O)[C@](C)(CC(C)C)NC(=O)[C@@H](NC(=O)[C@H](CO)NC(=O)[C@H](Cc1c[nH]cn1)NC(=O)[C@H](CC(=O)O)NC(=O)[C@H](CO)NC(=O)[C@@H](NC(=O)[C@](C)(Cc1ccccc1F)NC(=O)[C@@H](NC(=O)CNC(=O)[C@H](CCC(=O)O)NC(=O)C(C)(C)NC(=O)[C@@H](N)Cc1ccc(O)cc1)[C@@H](C)O)[C@@H](C)O)[C@@H](C)CC)[C@@H](C)CC)C(=O)N[C@@H](CCC(=O)O)C(=O)NCC(=O)NCC(=O)N1CCC[C@H]1C(=O)N[C@@H](CO)C(=O)N[C@@H](CO)C(=O)NCC(=O)N[C@@H](C)C(=O)N1CCC[C@H]1C(=O)N1CCC[C@H]1C(=O)N1CCC[C@H]1C(=O)N[C@@H](CO)C(N)=O [Example 154] (H-Y[Aib]EGT[αMePhe(2-F)]TSDHSI[αMeL]LDEK([AEEA-AEEA-γGlu-C20 diacid])AQ[Aib]EFIEYLIEGGPSSGAPPPS-NH2) was tested. Which EC50 [1] did it give?
The EC50 was 0.0266 nM.

And the Ki (human Gcg receptor)?
Its Ki is 762 nM.

What about the EC50 [2] of the same molecule?
The EC50 was 0.0393 nM.

What about the Ki (human GLP-1R) of the same molecule?
The Ki was 5.64 nM.

And the Ki (human GIP receptor)?
The Ki was 0.061 nM.

How did the EC50 [1] turn out when CC[C@H](C)[C@H](NC(=O)[C@H](CC(C)C)NC(=O)[C@H](Cc1ccc(O)cc1)NC(=O)[C@H](CCC(=O)O)NC(=O)[C@@H](NC(=O)[C@H](Cc1ccccc1)NC(=O)[C@H](CCC(=O)O)NC(=O)C(C)(C)NC(=O)[C@H](CCC(N)=O)NC(=O)[C@H](C)NC(=O)[C@H](CCCCNC(=O)COCCOCCNC(=O)COCCOCCNC(=O)CC[C@H](NC(=O)CCCCCCCCCCCCCCCCCCC(=O)O)C(=O)O)NC(=O)[C@H](CCC(=O)O)NC(=O)[C@H](CC(=O)O)NC(=O)[C@H](CC(C)C)NC(=O)[C@](C)(CC(C)C)NC(=O)[C@@H](NC(=O)[C@H](CO)NC(=O)[C@H](Cc1cccnc1)NC(=O)[C@H](CC(=O)O)NC(=O)[C@H](CO)NC(=O)[C@@H](NC(=O)[C@](C)(Cc1ccccc1F)NC(=O)[C@@H](NC(=O)CNC(=O)[C@H](CCC(=O)O)NC(=O)C(C)(C)NC(=O)[C@@H](N)Cc1ccc(O)cc1)[C@@H](C)O)[C@@H](C)O)[C@@H](C)CC)[C@@H](C)CC)C(=O)N[C@@H](CCC(=O)O)C(=O)NCC(=O)NCC(=O)N1CCC[C@H]1C(=O)N[C@@H](CO)C(=O)N[C@@H](CO)C(=O)NCC(=O)N[C@@H](C)C(=O)N1CCC[C@H]1C(=O)N1CCC[C@H]1C(=O)N1CCC[C@H]1C(=O)N[C@@H](CO)C(N)=O [Example 157] (H-Y[Aib]EGT[αMePhe(2-F)]TSD[3Pal]SI[αMeL]LDEK([AEEA-AEEA-γGlu-C20 diacid])AQ[Aib]EFIEYLIEGGPSSGAPPPS-NH2) was run?
Its EC50 is 0.0453 nM.

What about the Ki (human Gcg receptor) of the same molecule?
The Ki was 179 nM.

What about the EC50 [2] of the same molecule?
The EC50 was 0.0431 nM.

And the Ki (human GLP-1R)?
The Ki was 8.97 nM.

And the Ki (human GIP receptor)?
The Ki was 0.0937 nM.
